Results on four substances are retold here after patent US20090202497A1, “USE OF GLP-1, GLP-1 DERIVATIVES OR GLP-1 FRAGMENTS FOR SKIN REGENERATION, STIMULATION OF HAIR GROWTH, OR TREATMENT OF DIABETES” (The General Hospital Corporation, priority 2005, published 2009).

For test [1], the system named is shaved New Zealand white rabbits. The test can be described thus: Hair growth after intradermal peptide injection into the backs of shaved rabbits. The note with it: for hair growth at the sites of injection: 100 μg intradermally in Freund's adjuvant, observed approximately 3-4 weeks after last injection. It is filed as in vivo, rabbit. The procedure:
0.1 mg (100 μg) of the following peptides were injected intradermally into the backs of the shaved New Zealand white rabbits: synthetic mammalian GLP-1 (1-37), synthetic GLP-1 peptide fragment containing amino acid sequence 16-30 of GLP-1 (1-37) (amino acid numbering starts from histidine 1 of mammalian GLP-1 (1-37), synthetic rat GLP-2 peptide fragment containing amino acid sequence 9-24 of rat GLP-2 (amino acid numbering starts at histidine 1 of the rat GLP-2 sequence), rat IP-2 and synthetic mammalian glucagon. Sequences for rat GLP-2, rat IP-2 and mammalian glucagon are well known in the art, and are provided, for example, in U.S. Pat. No. 6,849,708, which is hereby wholly incorporated by reference (see, e.g., FIG. 1 of U.S. Pat. No. 6,849,708). The total amount of peptide was administered in 10-20 intradermal injections as an emulsification in Freund's adjuvant. Each peptide was tested in four rabbits, except for GLP-1 (1-37) that was injected into 5 rabbits. This amount of peptide was administered at 3 time intervals (100 μg at each time interval), one week apart. […] This effect was not observed in any of the rabbits that were immunized with any other of the above described peptides. […] The inventors observed enhanced hair growth upon intradermal injection of only GLP-1 (1-37) into rabbits.

Test [2] has as its system cultured skin-derived cells. Put plainly: cAMP luciferase reporter plasmid transfected into cultured skin-derived cells. The format is cell-based, mouse. As to conditions: data not shown.
For another test, the system named is P42/44 MAPK (ERK1/2). Put plainly: Western immunoblot of ERK1/2 phosphorylation in primary skin cell cultures. It is filed as cell-based, mouse. The note with it: 10 nM GLP-1. The procedure: Cultures of C57B6/L mouse skin-derived cells were grown in 100 mm dishes to 80% confluence. Cultures were washed once with PBS and incubated with KRB buffer (115 mM NaCl, 5 mM KCl, 10 mM NaHCO3, 2.5 mM MgCl2, 2.5 mM CaCl2, 20 mM HEPES, pH 7.4) containing 0.5% bovine serum albumin (BSA) and 1 mM glucose at 37° C. for 1 hour. Cultures were then incubated with 10 nM GLP1 in the setting of no (0 mM), low (2.8 mM) or high (16.7 mM) glucose. Proteins were extracted with lysis buffer (50 mM Hepes pH 7.6, 160 mM NaCl, 20 mM sodium pyrophosphate, 20 mM glycerophosphate, 10 mM NaF, 2 mM sodium vanadate, […], and protease inhibitor cocktail). Ten (10) μg of protein per lane was electrophoresed in 4-12% Bis-Tris gels (Invitrogen Corp.) and transferred onto nitrocellulose membranes (Nitrobind, Osmotics, Inc., Minnetonka, Minn.) at 4° C. overnight. Membranes were blocked with 3% BSA in PBS with 0.2% Tween-80 for 1 hour at RT, incubated with mouse monoclonal anti-phospho-P42 MAPK antibody (1:2000 dilution) at 4° C. overnight, washed, and incubated with horseradish peroxidase-conjugated secondary antibody at RT for 1 hour. Immunostained proteins were detected using a the ECL chemiluminescence detection kit (Amersham Biosciences, Ltd., Buckinghamshire, England). […]

Another test relates to mouse skin-derived cells. The test can be described thus: Differentiation of cultured skin-derived cells into insulin C-peptide producing cells (immunostaining). The format is cell-based. As to conditions: differentiation media with GLP-1 (10 nM) for 30 days. The procedure:
For in-vitro differentiation, after passaging for one month, mouse skin-derived cells were freshly plated and overlaid with differentiation medium composed of RPMI1640 containing 1% HEPES, 1% penicillin/streptomycin/fungizone, 1% pyruvate, 2% B-27 supplement, 2% FBS, […] MIN6 cells, provided by J. Miyazaki, were cultured as described (Miyazaki, J. et al., Endocrinology 127:126-32 (1990)).
For immunochemistry, 7 μm frozen sections were prepared from newborn C57BL/6 mouse skin, and skin-derived tissue culture cells were grown on coverslips. Tissues/coverslips were fixed with 4% paraformaldehyde at RT for 15 min. They were then rinsed with PBS containing 0.2% Triton X-100 and blocked with 3% normal donkey serum for 1 hour at RT. Tissues/coverslips were incubated with primary antibody at a 1:500 dilution at RT for 1 hour, rinsed with PBS containing 0.2% Triton X-100, and incubated with secondary (donkey) Cy2- or Cy3-conjugated antisera at RT for 1 hour. They were then washed with PBS and mounted with fluorescent mounting medium. […]
Mouse skin was minced and strained, and the resulting cells were used to establish primary cultures of mouse skin-derived cells. […] Immunoreactivity was detected with a Cy-3-conjugated secondary antibody.

For test [3], the system named is cultured skin-derived cells. Put plainly: fura-2 loading and perforated patch clamp monitoring of membrane potential and current. It is filed as cell-based, mouse. As to conditions: perforated patch clamp; data not shown. The source says:
The cells were next loaded with the Ca2+ indicator fura-2, and changes in membrane potential and current were monitored using the perforated patch clamp technique.

Test [4] concerns cultured skin-derived cells. Put plainly: cAMP levels in cell extracts after incubation with GLP-1. It is filed as cell-based, mouse. As to conditions: incubation with GLP-1 for 5-30 min; data not shown. The procedure: To determine whether GLP-1 receptors are actively coupled to signal transduction pathways in skin-derived cells, GLP-1 was added to the cells and examined for the activation of cell signaling. Three signaling pathways were investigated: Cyclic AMP, calcium influx, and mitogen activated protein kinase phosphorylation (MAPK).
Since GLP-1Rs are classically recognized to couple to Gs and adenylyl cyclase to generate cAMP cell extracts were assayed for changes in levels of cAMP after their incubation with GLP-1 for 5-30 min.

Consider “glucagon [mammalian glucagon, reference compound]”, for which the “hair growth at the sites of injection” value in test [1] (3 times one week apart) is listed as “not observed”.

For the substance “GLP-1 peptide fragment containing amino acid sequence 16-30 of GLP-1 (1-37): synthetic GLP-1 peptide fragment containing amino acid sequence 16-30 of GLP-1 (1-37) (VSSYLEGQAAKEFIA; Glucagon-like peptide 1; UniProt P01275 107-121, looked up, fragment)”, the “hair growth at the sites of injection” value in test [1] (3 times one week apart) is “not observed”.

On to glucagon-like peptide-1 [GLP-1 (1-37)], for which the “activation of cAMP luciferase reporter” value in test [2] was “failed to activate”. Besides, the “phosphorylation of ERK1/2 (time course)” value in the test on P42/44 MAPK (ERK1/2) (0, 5, 15 or 30 minutes, 0, 2.8 or 16.7 mM glucose) was “prompt phosphorylation of ERK1/2 after 5 minutes followed by defervescence of phosphorylation at 15 and rephosphorylation at 30 min”. Besides, the “glucose dependence of ERK1/2 phosphorylation” value in the test on P42/44 MAPK (ERK1/2) (no, 2.8 mM or 16.7 mM glucose) is reported as “glucose-dependent”. For the same substance, the “cytoplasmic staining of insulin C-peptide” value in the test on mouse skin-derived cells is listed as “Many of the cells showed cytoplasmic staining of C-peptide”. The “hair growth at the sites of injection” value in test [1] (3 times one week apart) is reported as “luxurious hair growth was observed only at the sites of injection”. Besides, the “rabbits showing hair growth at the sites of injection” value in test [1] (100 μg intradermally, 3 times one week apart, approximately 3-4 weeks after last injection) is given as 4 out of 5. Also, the “hair growth in repeat experiments” value in test [1] (repeat experiments at different seasons of the year) was “variable results”. Further, the “membrane current in response to peptide” value in test [3] is listed as “No membrane current was detected”. Also, the “changes in levels of cAMP” value in test [4] is listed as “No changes in cAMP levels were observed”.

“rat GLP-2 peptide fragment containing amino acid sequence 9-24 of rat GLP-2: synthetic rat GLP-2 peptide fragment, residues 9-24, numbering from histidine 1 of rat GLP-2 (EMNTILDNLATRDFIN; Glucagon-like peptide 2; UniProt P06883 154-169, looked up, fragment) [reference compound]”: the “hair growth at the sites of injection” value in test [1] (3 times one week apart) was “not observed”.
